Results published in patent US6716833B2, “Acetylenic α-amino acid-based sulfonamide hydroxamic acid tace inhibitors” (priority 1999, dated 2004).
Counter-ions that a name gives are not always drawn. Like-named read-outs stand apart in the source and are kept apart here.

What was measured:
Format in all cases: biochemical
[1] = biological target: T1, MMP-1 (Homo sapiens, UniProt P03956); assay: MMP-1 inhibition (thiopeptide or fluorescent peptide substrate); conditions: read-out: MMP-1 IC50
T1 sequence (P03956 100-469): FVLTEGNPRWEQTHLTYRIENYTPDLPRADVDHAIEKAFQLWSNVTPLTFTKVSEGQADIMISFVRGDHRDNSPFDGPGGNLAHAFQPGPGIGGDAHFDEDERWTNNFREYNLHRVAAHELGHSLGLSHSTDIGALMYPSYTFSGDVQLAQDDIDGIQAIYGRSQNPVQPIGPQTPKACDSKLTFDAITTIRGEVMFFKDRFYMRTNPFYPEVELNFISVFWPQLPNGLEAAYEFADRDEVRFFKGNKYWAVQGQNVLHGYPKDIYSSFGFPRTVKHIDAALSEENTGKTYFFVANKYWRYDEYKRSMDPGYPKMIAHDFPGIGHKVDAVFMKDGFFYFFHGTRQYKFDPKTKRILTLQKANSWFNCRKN

[2] = biological target: MMP-9 (Homo sapiens, UniProt P14780); assay: MMP-9 inhibition (thiopeptide or fluorescent peptide substrate); conditions: read-out: MMP-9 IC50
[3] = biological target: TNF-α converting enzyme (TACE) (Homo sapiens, UniProt P78536); assay: TACE inhibition (fluorescent peptidyl substrate); conditions: read-out: TACE IC50
[4] = biological target: MMP-13 (Homo sapiens, UniProt P45452); assay: MMP-13 inhibition (thiopeptide or fluorescent peptide substrate); conditions: read-out: MMP-13 IC50

Chain of TNF-α converting enzyme (TACE) (P78536 215-824, species assumed): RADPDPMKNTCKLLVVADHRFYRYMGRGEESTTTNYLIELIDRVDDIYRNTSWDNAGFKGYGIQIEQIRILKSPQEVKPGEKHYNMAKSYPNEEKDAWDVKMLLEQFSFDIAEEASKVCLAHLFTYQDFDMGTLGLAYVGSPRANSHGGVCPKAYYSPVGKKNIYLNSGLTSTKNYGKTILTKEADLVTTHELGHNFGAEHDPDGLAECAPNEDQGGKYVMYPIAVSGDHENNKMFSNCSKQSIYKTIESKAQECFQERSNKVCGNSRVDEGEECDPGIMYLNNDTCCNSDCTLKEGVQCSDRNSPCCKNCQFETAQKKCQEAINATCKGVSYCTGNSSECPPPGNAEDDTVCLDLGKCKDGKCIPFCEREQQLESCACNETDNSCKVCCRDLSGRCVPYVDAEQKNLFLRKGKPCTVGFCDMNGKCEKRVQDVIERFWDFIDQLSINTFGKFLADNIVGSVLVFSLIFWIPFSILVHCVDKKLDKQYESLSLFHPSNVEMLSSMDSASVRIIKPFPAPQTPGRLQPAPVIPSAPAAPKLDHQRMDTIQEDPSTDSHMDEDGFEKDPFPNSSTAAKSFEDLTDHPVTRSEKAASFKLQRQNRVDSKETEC
Chain of MMP-9 (P14780 94-707): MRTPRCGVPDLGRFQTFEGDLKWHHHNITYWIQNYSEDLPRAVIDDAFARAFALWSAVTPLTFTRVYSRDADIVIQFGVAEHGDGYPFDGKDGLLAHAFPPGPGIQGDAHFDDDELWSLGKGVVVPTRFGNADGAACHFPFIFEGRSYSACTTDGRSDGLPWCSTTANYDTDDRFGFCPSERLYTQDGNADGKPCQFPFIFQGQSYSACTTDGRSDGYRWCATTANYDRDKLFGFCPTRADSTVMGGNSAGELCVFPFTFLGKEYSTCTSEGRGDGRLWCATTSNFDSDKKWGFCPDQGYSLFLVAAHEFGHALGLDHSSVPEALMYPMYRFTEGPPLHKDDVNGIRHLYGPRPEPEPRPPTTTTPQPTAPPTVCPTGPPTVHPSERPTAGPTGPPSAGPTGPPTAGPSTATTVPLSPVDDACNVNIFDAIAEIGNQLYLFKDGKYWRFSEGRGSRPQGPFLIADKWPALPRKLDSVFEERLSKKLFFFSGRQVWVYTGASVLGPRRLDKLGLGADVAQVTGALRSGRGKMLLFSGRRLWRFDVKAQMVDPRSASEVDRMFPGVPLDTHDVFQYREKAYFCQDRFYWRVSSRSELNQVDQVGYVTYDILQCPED

| IC50 [1] | IC50 [2] | IC50 [3] | IC50 [4] | SMILES | further results |
| --- | --- | --- | --- | --- | --- |
| 0.496 µM | 0.043 µM | 0.008 µM | 0.02 µM | CC#CCOc1ccc(S(=O)(=O)N(C)C(C(=O)NO)c2ccccc2)cc1 (stereo not shown) [Example 211, 2-[{[4-(2-Butynyloxy)phenyl]sulfonyl}(methyl)amino]-N-hydroxy-2-phenylacetamide] | – |
| – | – | – | – | CC#CCOc1ccc(S(=O)(=O)N2CC[S+]([O-])C(C)(C)C2C(=O)NO)cc1 (single isomer, unassigned) [Example 256] | IC50 ([1]; Table 9): 0.043 µM; IC50 ([2]; Table 9): 0.145 µM; IC50 ([3]; Table 9): 0.025 µM; IC50 ([4]; Table 9): 0.048 µM |
| – | – | – | – | CC1(C)SCCN(S(=O)(=O)c2ccc(OCC#CCOCc3ccccc3)cc2)C1C(=O)NO (stereo not shown) [Example 247, 4-[(4-{[4-(Benzyloxy)-2-butynyl]oxy}phenyl)sulfonyl]-N-hydroxy-2,2-dimethyl-3-thiomorpholine Carboxamide] | IC50 ([1]; Table 10): 0.053 µM; IC50 ([2]; Table 10): 0.108 µM; IC50 ([3]; Table 10): 0.16 µM; IC50 ([4]; Table 10): 0.0025 µM |
| ~10 µM | 0.569 µM | 0.0094 µM | 0.073 µM | CC#CCOc1ccc(S(=O)(=O)N[C@@H](C(=O)NO)c2ccc(OCCNC(C)=O)cc2)cc1 [Example 201, (2R)-2-{4-[2-(Acetylamino)ethoxy]phenyl}-2-({[4-(2-butynyloxy)phenyl]sulfonyl}amino)-N-hydroxyethanamide] | – |
| 0.482 µM | 0.043 µM | 0.023 µM | 0.014 µM | CC#CCOc1ccc(S(=O)(=O)N(C)C(C(=O)NO)c2ccc(OC)cc2)cc1 (stereo not shown) [Example 178, 2-[{[4-(2-Butynyloxy)phenyl]sulfonyl}(methyl)amino]-N-hydroxy-2-(4-methoxyphenyl)acetamide] | – |
| 0.362 µM | 0.075 µM | 0.017 µM | 0.065 µM | CC#CCOc1ccc(S(=O)(=O)N2CCCN(C(=O)c3ccccc3)CC2C(=O)NO)cc1 (stereo not shown) [Example 49, 4-Benzoyl-1-(4-but-2-ynyloxy-benzenesulfonyl)-[1,4]diazepane-2-carboxylic Acid Hydroxyamide] | – |
| 0.91 µM | 0.046 µM | 0.199 µM | 0.013 µM | CC#CCOc1ccc(S(=O)(=O)N(C)C(C(=O)NO)c2ccc(OCCCNC(=O)OC(C)(C)C)cc2)cc1 (stereo not shown) [Example 187, tert-Butyl 3-{4-[1-[{[4-(2-Butynyloxy)phenyl]sulfonyl}(methyl)amino]-2-(hydroxyamino)-2-oxoethyl]phenoxy}propylcarbamate] | – |
| – | – | – | – | CN(CC#CCOc1ccc(S(=O)(=O)N2CCSC(C)(C)C2C(=O)NO)cc1)C(=O)OC(C)(C)C (stereo not shown) [Example 267, tert-Butyl 4-[4-({3-[(Hydroxyamino)carbonyl]-2,2-dimethyl-4-thiomorpholinyl}sulfonyl)phenoxy]-2-butynyl(methyl)carbamate] | IC50 ([1]; Table 10): 0.364 µM; IC50 ([2]; Table 10): 1.27 µM; IC50 ([3]; Table 10): 0.112 µM; IC50 ([4]; Table 10): 0.037 µM |
| ~10 µM | 0.518 µM | 0.015 µM | 0.176 µM | CC#CCOc1ccc(S(=O)(=O)N[C@@H](C(=O)NO)c2ccc(OCCN)cc2)cc1 [Example 200, (2R)-2-[4-(2-Aminoethoxy)phenyl]-2-({[4-(2-butynyloxy)phenyl]sulfonyl}amino)-N-hydroxyethanamide] | – |
| 0.129 µM | 0.094 µM | 0.124 µM | 0.046 µM | CC#CCOc1ccc(S(=O)(=O)N(CCCN2CCOCC2)C(C(=O)NO)C(C)C)cc1 (stereo not shown) [Example 119, 2-{{[4-(2-Butynyloxy)phenyl]sulfonyl}[3-(4-morpholinyl)propyl]amino}-N-hydroxy-3-methylbutanamide] | – |
| 0.045 µM | 0.103 µM | 0.086 µM | 0.0092 µM | CC#CCOc1ccc(S(=O)(=O)N(C)C(C(=O)NO)C(C)(C)SCCN2CCOCC2)cc1 (stereo not shown) [Example 140, 2-({[4-(2-Butynyloxy)phenyl]sulfonyl)(methyl)amino]-N-hydroxy-3 Methyl-3-[(2(4-morpholinylethyl)sulfanyl]-butanamide Hydrochloride] | – |
| – | – | – | – | CC(C)(C)OC(=O)NCC#CCOc1ccc(S(=O)(=O)N2CCSC(C)(C)C2C(=O)NO)cc1 (stereo not shown) [Example 266, tert-Butyl 4-[4-({3-[(Hydroxyamino)carbonyl]-2,2-dimethyl-4-thiomorpholinyl}sulfonyl)phenoxy]-2-butynylcarbamate] | IC50 ([1]; Table 10): 0.026 µM; IC50 ([2]; Table 10): 0.031 µM; IC50 ([3]; Table 10): 0.074 µM; IC50 ([4]; Table 10): 0.004 µM |
| 0.487 µM | 0.022 µM | 0.016 µM | 0.015 µM | CC#CCOc1ccc(S(=O)(=O)N(C)C(C(=O)NO)c2ccc(OCCN(C)C)cc2)cc1 (stereo not shown) [Example 182, 2-[{[4-(2-Butynyloxy)phenyl]sulfonyl}(methyl)amino]-2-{4-[2-(dimethylamino)ethoxy]phenyl}-N-hydroxyacetamide] | – |
| – | – | – | – | CC1(C)SCCN(S(=O)(=O)c2ccc(OCC#CCCOC3CCCCO3)cc2)C1C(=O)NO (stereo not shown) [Example 243, N-Hydroxy-2,2-dimethyl-4-[(4-{[5-(tetrahydro-2H-pyran-2-yloxy)-2-pentynyl]oxy}phenyl)sulfonyl]-3-thiomorpholine Carboxamide] | IC50 ([1]; Table 10): 0.194 µM; IC50 ([2]; Table 10): 0.178 µM; IC50 ([3]; Table 10): 0.087 µM; IC50 ([4]; Table 10): 0.0041 µM |
| 0.187 µM | 0.053 µM | 0.104 µM | 0.037 µM | CC#CCOc1ccc(S(=O)(=O)N(CC#CCNC)C(C(=O)NO)C(C)C)cc1 (stereo not shown) [Example 127, 2-{{[4-(2-Butynyloxy)phenyl]sulfonyl}[4-(methylamino)-2-butynyl]amino}-N-hydroxy-3-methylbutanamide] | – |
| 0.527 µM | 0.037 µM | 0.032 µM | 0.029 µM | CC#CCOc1ccc(S(=O)(=O)N(C)[C@@H](C(=O)NO)c2ccc(O[C@H]3CCNC3)cc2)cc1 [Example 190, (2R)-2-[{[4-(2-Butynyloxy)phenyl]sulfonyl}(methyl)amino]-N-hydroxy-2-{4-[(3S)-pyrrolidinyloxy]phenyl}ethanamide] | – |

| SMILES | IC50 [1] | IC50 [2] | IC50 [3] | IC50 [4] | further results |
| --- | --- | --- | --- | --- | --- |
| CC#CCOc1ccc(S(=O)(=O)N2CCN(C(=O)CC)CC2C(=O)NO)cc1 (stereo not shown) [Example 225, 1-(4-but-2-ynyloxy-Benzenesulfonyl)-4-propionyl-piperazine-2-carboxylic Acid Hydroxyamide] | 1 µM | 0.727 µM | 0.017 µM | 0.23 µM | – |
| CC#CCOc1ccc(S(=O)(=O)N(CCN2CCOCC2)CC(=O)NO)cc1 [Example 124, 2-[{[4-(but-2-ynyloxy)Phenyl]sulfonyl}(2-morpholin-4-ylethyl)amino]-N-hydroxyacetamide Hydrochloride] | 1.77 µM | 0.211 µM | 0.013 µM | 0.054 µM | – |
| CC#CCOc1ccc(S(=O)(=O)N(CCCN2CCN(C)CC2)C(C(=O)NO)C(C)C)cc1 (stereo not shown) [Example 120, 2-{{[4-(2-Butynyloxy)phenyl]sulfonyl}[3-(4-methyl-1-piperazinyl)propyl]amino}-N-hydroxy-3-methylbutanamide Hydrochloride] | 0.111 µM | 0.211 µM | 0.149 µM | 0.161 µM | – |
| CC#CCOc1ccc(S(=O)(=O)N2CCN(C)CC2C(=O)NO)cc1 (stereo not shown) [Example 56, 1-(4-but-2-ynyloxy-Benzenesulfonyl)-4-methyl-piperazine-2-carboxylic Acid Hydroxyamide Hydrochloride] | 3.34 µM | 0.667 µM | 0.041 µM | 0.158 µM | – |
| CC#CCOc1ccc(S(=O)(=O)N2CCN(C(=O)CNC(=O)OC(C)(C)C)CC2C(=O)NO)cc1 (stereo not shown) [Example 229, {2-[4-(4-but-2-ynyloxy-Benzenesulfonyl)-3-hydroxycarbamoyl-piperazin-1-yl]-2-oxo-ethyl}-carbamic Acid tert-Butyl Ester] | 1.01 µM | 0.322 µM | 0.064 µM | 0.085 µM | – |
| CC#CCOc1ccc(S(=O)(=O)N2CCN(C(C)=O)CC2C(=O)NO)cc1 (stereo not shown) [Example 224, 4-Acetyl-1-(4-but-2-ynyloxy-benzenesulfonyl)-piperazine-2-carboxylic Acid Hydroxyamide] | 0.357 µM | 0.088 µM | 0.013 µM | 0.022 µM | – |
| CC#CCOc1ccc(S(=O)(=O)N(Cc2cccnc2)C(C)C(=O)NO)cc1 (stereo not shown) [Example 33, 2-[(4-but-2-ynyloxy-Benzenesulfonyl)-pyridin-3-ylmethyl-amino]-N-hydroxy-propionamide Hydrochloride] | 0.239 µM | 0.065 µM | 0.005 µM | 0.026 µM | – |
| CC#CCOc1ccc(S(=O)(=O)N2CCN(C(=O)CN)CC2C(=O)NO)cc1 (stereo not shown) [Example 230, 4-Aminoacetyl-1-(4-but-2-ynyloxy-benzenesulfonyl)-piperazine-2-carboxylic Acid Hydroxyamide] | 8.5 µM | 1.23 µM | 0.127 µM | 0.41 µM | – |
| CC#CCOc1ccc(S(=O)(=O)N2CCN(C(=O)C(C)(CO)CO)CC2C(=O)NO)cc1 (stereo not shown) [Example 232, 1-{[4-(2-Butynyloxy)phenyl]sulfonyl}-N-hydroxy-4-[3-hydroxy-2-(hydroxymethyl)-2-methylpropanoyl]-2-piperazinecarboxamide] | 1.68 µM | 0.785 µM | 0.044 µM | 0.289 µM | – |
